Residue numbers refer to the chain shown, from its start. Where a name gives a salt, the structure may show the parent alone.
Columns and labels:
human sGC = target: T1, human sGC (Homo sapiens, UniProt Q02153); test: sGC enzyme assay, fluorescence polarisation of labelled cGMP; type: biochemical; conditions: human sGC 1 nM, FP assay; concentration able to increase by 5-fold basal cGMP
T1 sequence (Q02153 1-619): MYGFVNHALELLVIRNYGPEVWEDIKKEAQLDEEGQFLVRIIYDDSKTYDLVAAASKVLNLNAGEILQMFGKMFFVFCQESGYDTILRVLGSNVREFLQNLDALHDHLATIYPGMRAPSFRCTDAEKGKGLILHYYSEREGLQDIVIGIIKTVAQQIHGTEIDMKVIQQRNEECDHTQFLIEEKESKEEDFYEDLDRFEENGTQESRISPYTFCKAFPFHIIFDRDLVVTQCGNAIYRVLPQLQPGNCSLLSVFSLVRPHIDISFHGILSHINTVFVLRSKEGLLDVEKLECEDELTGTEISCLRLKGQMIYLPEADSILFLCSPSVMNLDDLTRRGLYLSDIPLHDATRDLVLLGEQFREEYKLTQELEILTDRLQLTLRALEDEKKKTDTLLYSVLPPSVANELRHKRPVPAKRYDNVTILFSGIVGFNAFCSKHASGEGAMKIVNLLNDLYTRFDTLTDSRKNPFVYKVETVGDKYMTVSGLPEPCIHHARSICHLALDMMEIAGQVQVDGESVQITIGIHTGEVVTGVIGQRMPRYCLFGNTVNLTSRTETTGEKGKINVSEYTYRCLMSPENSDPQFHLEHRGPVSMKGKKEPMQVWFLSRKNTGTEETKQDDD
T1 sequence (Q02108 1-690 partner): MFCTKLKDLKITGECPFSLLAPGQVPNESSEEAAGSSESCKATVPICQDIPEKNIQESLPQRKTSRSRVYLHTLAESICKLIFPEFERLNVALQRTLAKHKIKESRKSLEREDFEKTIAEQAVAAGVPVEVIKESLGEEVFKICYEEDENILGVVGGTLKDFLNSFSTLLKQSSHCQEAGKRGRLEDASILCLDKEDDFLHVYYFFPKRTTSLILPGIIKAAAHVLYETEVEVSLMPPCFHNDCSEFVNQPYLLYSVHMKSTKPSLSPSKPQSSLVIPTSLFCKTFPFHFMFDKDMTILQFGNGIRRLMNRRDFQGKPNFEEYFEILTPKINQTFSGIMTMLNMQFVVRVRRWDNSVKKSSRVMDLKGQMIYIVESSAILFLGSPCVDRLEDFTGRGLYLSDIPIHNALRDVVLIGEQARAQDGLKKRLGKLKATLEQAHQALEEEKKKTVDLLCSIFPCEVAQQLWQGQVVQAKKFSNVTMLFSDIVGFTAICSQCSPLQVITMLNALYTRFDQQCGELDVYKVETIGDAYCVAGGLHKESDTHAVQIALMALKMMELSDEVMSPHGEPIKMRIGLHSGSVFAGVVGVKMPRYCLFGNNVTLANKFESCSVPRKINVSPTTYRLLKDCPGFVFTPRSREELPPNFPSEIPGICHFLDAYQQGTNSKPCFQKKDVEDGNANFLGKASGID
Protocol: The activity of soluble guanylate cyclase (sGC) was tested in an assay based on measuring the fluorescent polarisation (FP) signal of fluorescently labelled cGMP. FP increased on interaction with an anti-cGMP antibody as the motility of the molecule was reduced. Newly produced cGMP displaced the interaction giving rise to a decrease in polarisation and FP signal which was equated to enzyme activity. Compounds were incubated with human sGC, anti-cGMP antibody, the GTP substrate and fluorescently labelled cGMP. After a period of one hour the assay was stopped with the addition of EDTA and after a further hour the assay was read.
Human sGC was thawed and resuspended in assay buffer (100 mM TRIS, 10 mM MgCl2, 0.2 mM Tween 20, pH7.4, containing 1:100 dilution of sheep anti-cGMP) to give final concentration of 1 nM in the well. A substrate solution was prepared containing GTP and 8-fluo-cGMP in de-ionized water to a final concentration of 25 μM and 50 nM respectively. Assay plates containing 5 μL of various test compounds and of a standard agonist (50 μM-50 nM) in 1% DMSO as 6 point, four fold dilutions across a 96 well plate were used in the assay. The plate also contained 6 wells of DMSO (1%) to produce high control and a cGMP standard curve (14 nM to 10 μM) to convert FP data to cGMP concentration. 25 μL of enzyme mix and 20 μl of substrate mix described above were added to each well of the plate. Samples were mixed on an orbital shaker and then incubated at room temperature for 1 hour. After this incubation period 5 μl of 0.5M EDTA was added to all wells and the plates were incubated for a further hour at room temperature prior to reading the FP signal in an appropriate reader. For data handling FP data were converted to cGMP concentrations and then fitted using ActivityBase software. The activity of a test compound was determined as the pEC500 value which is the concentration able to increase by 5-fold basal cGMP.

[1] = target: T2, soluble guanylate cyclase (sGC) (Rattus norvegicus, UniProt P20595); test: Cellular assay, VASP phosphorylation in rat aortic smooth muscle cells with ODQ; type: cell-based; conditions: phospho-VASP signal, primary rat aortic smooth muscle cells, 10 μM ODQ, 30 min incubation; 50% vs. Bmax; read-out: Cell assay pEC50 (converted)
T2 construct: endogenous in cells; host or cells: primary rat aortic smooth muscle cells
T2 sequence (P20595 1-619): T1 sequence (Q02153 1-619) with N171S, E205D, N247K, T299A, K615N, D618E, D619N
T2 sequence (P19686 1-690 partner): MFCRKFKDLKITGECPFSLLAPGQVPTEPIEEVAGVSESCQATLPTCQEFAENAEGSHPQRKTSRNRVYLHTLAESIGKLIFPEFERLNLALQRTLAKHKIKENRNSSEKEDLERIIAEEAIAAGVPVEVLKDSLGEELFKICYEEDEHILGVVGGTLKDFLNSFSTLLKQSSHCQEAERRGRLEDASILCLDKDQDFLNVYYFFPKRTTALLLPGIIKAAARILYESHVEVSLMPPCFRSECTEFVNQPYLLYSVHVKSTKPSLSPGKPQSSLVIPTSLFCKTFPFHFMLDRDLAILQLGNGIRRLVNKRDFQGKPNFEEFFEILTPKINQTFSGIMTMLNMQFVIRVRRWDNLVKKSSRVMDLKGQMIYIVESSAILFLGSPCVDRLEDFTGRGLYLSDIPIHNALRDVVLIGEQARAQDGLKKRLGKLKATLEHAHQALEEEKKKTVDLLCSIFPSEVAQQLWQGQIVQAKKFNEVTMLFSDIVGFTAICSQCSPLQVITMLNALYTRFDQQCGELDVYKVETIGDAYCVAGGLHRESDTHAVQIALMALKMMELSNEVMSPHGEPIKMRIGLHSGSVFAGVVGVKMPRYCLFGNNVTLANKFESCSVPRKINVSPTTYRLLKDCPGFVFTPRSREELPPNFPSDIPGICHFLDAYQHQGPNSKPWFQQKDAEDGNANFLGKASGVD
Protocol: The activity of soluble guanylate cyclase (sGC) was tested in an assay based on measuring phosphorylation of the protein kinase G (PKG) substrate vasodilator-stimulated phosphoprotein (VASP) in rat aortic smooth muscle cells. […] Dimethylsulfoxide (DMSO) vehicle and varying concentrations of the compound to be tested were then added. Following a 30 min incubation at 37° C., media was aspirated and the cells were rinsed with phosphate-buffered saline (PBS) and fixed with 4% formaldehyde in PBS by incubating at room temperature for 20 min. Cells were then washed with PBS and permeabilized for 10 min using 0.1% triton X-100 in PBS. Following PBS rinsing, the cells were blocked for 90 min at room temperature with blocking buffer. The buffer was aspirated and the cells were treated overnight at 4° C. with primary antibody (pSer239-VASP, rabbit polyclonal Ab) diluted 1:500 in blocking buffer. Following three washes with 0.05% Tween 20, the cells were treated for 1 h at room temperature with a fluorescent labeled secondary antibody (IRDye® 800CW Donkey Anti-Rabbit IgG) diluted 1:2500 in blocking buffer with 0.05% Tween 20. Following two washes with PBS, infrared fluorescence was measured using an Odyssey Infrared Imaging System. The activity of a test compound was determined as the pEC50 value which is the concentration able to increase by 50% (vs. Bmax) the phospho-VASP fluorescent signal. Front. Pharmacol., 5 Jul. 2012|doi: 10.3389/fphar.2012.00128, Volume 3 July, 2012, Article number 128.

Row | Structure (SMILES) | sGC pEC500 (human sGC) | EC50 [1]
1 | O=C(O)c1cnn(-c2cccc(-c3ccccc3CCc3ccc(OCCCN4CCOCC4)cc3)n2)c1C(F)(F)F [Example 2, 1-(6-(2-(4-(3-morpholinopropoxy)phenethyl)phenyl)pyridin-2-yl)-5-(trifluoromethyl)-1H-pyrazole-4-carboxylic acid] | 6.19 | 
2 | Cc1cc(OCCCC(F)(F)F)ccc1CCc1ccc(F)cc1-c1cccc(-n2ncc(C(=O)O)c2C(F)(F)F)n1 [Example 13, 1-(6-(5-Fluoro-2-(2-methyl-4-(4,4,4-trifluorobutoxy)phenethyl)phenyl)pyridin-2-yl)-5-(trifluoromethyl)-1H-pyrazole-4-carboxylic acid] |  | 1.26 nM
3 | Cc1cc(OCCCn2cccn2)ccc1CCc1ccc(F)cc1-c1cccc(-n2ncc(C(=O)O)c2C(F)(F)F)n1 [Example 14, 1-(6-(2-(4-(3-(1H-pyrazol-1-yl)propoxy)-2-methylphenethyl)-5-fluorophenyl)pyridin-2-yl)-5-(trifluoromethyl)-1H-pyrazole-4-carboxylic acid] |  | 1.58 nM
4 | CCOC(=O)c1cnn(-c2cccc(-c3ccccc3CCc3ccc(OCCCC(F)(F)F)cc3C)n2)c1C(F)(F)F [Example 19, Ethyl 1-(6-(2-(2-methyl-4-(4,4,4-trifluorobutoxy)phenethyl)phenyl)pyridin-2-yl)-5-(trifluoromethyl)-1H-pyrazole-4-carboxylate] |  | 251 nM
5 | Cc1cc(OCCCC(F)(F)F)ccc1CCc1ccccc1-c1cccc(-n2ncc(C(=O)O)c2C(F)(F)F)n1 [Example 21, 1-(6-(2-(2-methyl-4-(4,4,4-trifluorobutoxy)phenethyl)phenyl)pyridin-2-yl)-5-(trifluoromethyl)-1H-pyrazole-4-carboxylic acid, sodium salt] |  | 7.94 nM
6 | Cc1cc(OCCCC(F)(F)F)ccc1CCc1ccccc1-c1cccc(-n2ncc(C(=O)OC(C)C)c2C(F)(F)F)n1 [Example 22, Isopropyl 1-(6-(2-(2-methyl-4-(4,4,4-trifluorobutoxy)phenethyl)phenyl)pyridin-2-yl)-5-(trifluoromethyl)-1H-pyrazole-4-carboxylate] |  | 1260 nM

Other lines, results leading:

Row | sGC pEC500 (human sGC) | EC50 [1] | Structure (SMILES)
7 |  | 39.8 nM | Cc1cc(OCCCn2cc(C#N)cn2)ccc1CCc1ccc(F)cc1-c1cccc(-n2ncc(C(=O)O)c2C(F)(F)F)n1 [Example 15, 1-(6-(2-(4-(3-(4-cyano-1H-pyrazol-1-yl)propoxy)-2-methylphenethyl)-5-fluorophenyl)pyridin-2-yl)-5-(trifluoromethyl)-1H-pyrazole-4-carboxylic acid, sodium salt]
8 |  | 6.31 nM | COc1cnn(CCCOc2ccc(CCc3ccc(F)cc3-c3cccc(-n4ncc(C(=O)O)c4C(F)(F)F)n3)c(C)c2)c1 [Example 16, 1-(6-(5-Fluoro-2-(4-(3-(4-methoxy-1H-pyrazol-1-yl)propoxy)-2-methylphenethyl)phenyl)pyridin-2-yl)-5-(trifluoromethyl)-1H-pyrazole-4-carboxylic acid, sodium salt]
9 |  | 20 nM | Cc1cc(OCCCn2cncn2)ccc1CCc1ccc(F)cc1-c1cccc(-n2ncc(C(=O)O)c2C(F)(F)F)n1 [Example 17, 1-(6-(2-(4-(3-(1H-1,2,4-triazol-1-yl)propoxy)-2-methylphenethyl)-5-fluorophenyl)pyridin-2-yl)-5-(trifluoromethyl)-1H-pyrazole-4-carboxylic acid, sodium salt]
10 |  | 7.94 nM | Cc1cc(OCCCn2ccc(C#N)n2)ccc1CCc1ccc(F)cc1-c1cccc(-n2ncc(C(=O)O)c2C(F)(F)F)n1 [Example 18, 1-(6-(2-(4-(3-(3-cyano-1H-pyrazol-1-yl)propoxy)-2-methylphenethyl)-5-fluorophenyl)pyridin-2-yl)-5-(trifluoromethyl)-1H-pyrazole-4-carboxylic acid, sodium salt]

Reference: patent publication US20160214956A1, “NOVEL SOLUBLE GUANYLATE CYCLASE ACTIVATORS AND THEIR USE” (GLAXOSMITHKLINE INTELLECTUAL PROPERTY DEVELOPMENT LIMITED, priority 2013, published 2016)
